Experimental data taken from patent US20260207623A1, “USE OF ESTETROL IN HEPATICALLY IMPAIRED PATIENTS” (ESTETRA SRL, priority 2022, published 2026).

System: female subjects with normal hepatic function, mild, moderate or severe hepatic impairment
Test: Safety and tolerability (TEAEs, clinical laboratory, vital signs, physical examination) after a single oral dose of 20 mg E4 monohydrate in the hepatic impairment study
Assay type: in vivo, human
Details: for TEAE by severity: Vascular disorders, severity Mild / TEAE: Back pain / TEAE: Diarrhea / TEAE: Gastrointestinal disorders / TEAE: General disorders and administration site conditions / TEAE: Haemarthrosis / TEAE: Headache / TEAE: Hypertension / TEAE: Musculoskeletal and connective tissue disorders / TEAE: Nervous system disorders / TEAE: Pain in extremity / TEAE: Pancreatitis / TEAE: Pyrexia / TEAE: Renal and urinary disorders / TEAE: Renal impairment / TEAE: Total Subjects with at Least One TEAE / TEAE: Vascular disorders / TEAE by severity: Back pain, severity Mild / TEAE by severity: Back pain, severity Moderate / TEAE by severity: Diarrhea, severity Mild / TEAE by severity: Diarrhea, severity Moderate / TEAE by severity: Gastrointestinal disorders, severity Mild / TEAE by severity: Gastrointestinal disorders, severity Moderate / TEAE by severity: General disorders and administration site conditions, severity Mild / TEAE by severity: Haemarthrosis, severity Mild / TEAE by severity: Headache, severity Mild / TEAE by severity: Headache, severity Moderate / TEAE by severity: Hypertension, severity Mild / TEAE by severity: Musculoskeletal and connective tissue disorders, severity Mild / TEAE by severity: Musculoskeletal and connective tissue disorders, severity Moderate / TEAE by severity: Nervous system disorders, severity Mild / TEAE by severity: Nervous system disorders, severity Moderate / TEAE by severity: Pain in extremity, severity Mild / TEAE by severity: Pancreatitis, severity Moderate / TEAE by severity: Pyrexia, severity Mild / TEAE by severity: Renal and urinary disorders, severity Mild / TEAE by severity: Renal impairment, severity Mild: single oral 20 mg
Experimental: This was a Phase 1, multi-centre, open-label, PK, and safety study of a single oral dose of 20 mg E4 monohydrate in female subjects with normal hepatic function (Group 1), mild hepatic impairment (Group 2), moderate hepatic impairment (Group 3), and severe hepatic impairment (Group 4), as defined using the Child-Pugh classification at Screening.
Safety and tolerability assessments consisted of treatment-emergent AEs (TEAEs), clinical laboratory, vital signs, physical examination, and gynecological examination. Assessments were performed in accordance with Table 2 and Table 3 in Section 2.5.1.
AEs/TEAEs were recorded after signing of the ICF until completion of the follow up visit. Any clinically significant observations in results of clinical laboratory, vital signs, or physical examinations were recorded as AEs.
A TEAE is defined as any event not present prior to administration of the study drug or any event already present that worsens in either severity or frequency following exposure to the study drug.
The below listed tests were to be performed by the local laboratories at time points indicated in the Schedule of Assessments (Table 2).
Systolic and diastolic blood pressure and pulse were recorded after the subject had been resting for at least 5 minutes in the supine position at time points indicated in the Schedule of Assessments (Table 2). These assessments were made using an automated device. Body temperature and respiratory rate were measured subsequently.
A complete physical examination consisting of a review of all body systems was performed at time points indicated in the Schedule of Assessments (Table 2). A symptom-directed physical examination could be conducted at any time per Investigator's discretion.
2.6.2.2 Evaluation of Safety and Tolerability Safety and tolerability were assessed through TEAEs, clinical laboratory, vital signs, and physical examination findings, and any other parameter that was relevant for safety assessment.
A listing of all individual AEs is provided. Summary tables of TEAEs are presented by system organ class (SOC) based on the MedDRA terminology list (preferred terms): a table containing the number of subjects experiencing AEs by hepatic function, a table containing the number of subjects experiencing SAEs by hepatic function (if applicable), a table by hepatic function and relationship, and a table by hepatic function and severity.

[1] = Normal hepatic function (N = 8)
[2] = Severe hepatic impairment (N = 8)

C[C@]12CC[C@@H]3c4ccc(O)cc4CC[C@H]3[C@@H]1[C@@H](O)[C@@H](O)[C@@H]2O [E4 monohydrate, estetrol monohydrate]
TEAE by severity: Vascular disorders, severity Mild [1]: 0 (0.0) n (%) | TEAE: Back pain [1]: 1 (12.5) n (%) | TEAE: Diarrhea [1]: 1 (12.5) n (%) | TEAE: Gastrointestinal disorders [1]: 2 (25.0) n (%) | TEAE: General disorders and administration site conditions [1]: 0 (0.0) n (%) | TEAE: Haemarthrosis [1]: 0 (0.0) n (%) | TEAE: Headache [1]: 0 (0.0) n (%) | TEAE: Hypertension [1]: 0 (0.0) n (%) | TEAE: Musculoskeletal and connective tissue disorders [1]: 1 (12.5) n (%) | TEAE: Nervous system disorders [1]: 0 (0.0) n (%) | TEAE: Pain in extremity [1]: 0 (0.0) n (%) | TEAE: Pancreatitis [1]: 1 (12.5) n (%) | TEAE: Pyrexia [1]: 0 (0.0) n (%) | TEAE: Renal and urinary disorders [1]: 0 (0.0) n (%) | TEAE: Renal impairment [1]: 0 (0.0) n (%) | TEAE: Total Subjects with at Least One TEAE [1]: 2 (25.0) n (%) | TEAE: Vascular disorders [1]: 0 (0.0) n (%) | TEAE by severity: Back pain, severity Mild [2]: 1 (12.5) n (%) | TEAE by severity: Back pain, severity Moderate [2]: 0 (0.0) n (%) | TEAE by severity: Diarrhea, severity Mild [2]: 0 (0.0) n (%) | TEAE by severity: Diarrhea, severity Moderate [2]: 0 (0.0) n (%) | TEAE by severity: Gastrointestinal disorders, severity Mild [2]: 0 (0.0) n (%) | TEAE by severity: Gastrointestinal disorders, severity Moderate [2]: 0 (0.0) n (%) | TEAE by severity: General disorders and administration site conditions, severity Mild [2]: 0 (0.0) n (%) | TEAE by severity: Haemarthrosis, severity Mild [2]: 0 (0.0) n (%) | TEAE by severity: Headache, severity Mild [2]: 0 (0.0) n (%) | TEAE by severity: Headache, severity Moderate [2]: 0 (0.0) n (%) | TEAE by severity: Hypertension, severity Mild [2]: 0 (0.0) n (%) | TEAE by severity: Musculoskeletal and connective tissue disorders, severity Mild [2]: 1 (12.5) n (%) | TEAE by severity: Musculoskeletal and connective tissue disorders, severity Moderate [2]: 0 (0.0) n (%) | TEAE by severity: Nervous system disorders, severity Mild [2]: 0 (0.0) n (%) | TEAE by severity: Nervous system disorders, severity Moderate [2]: 0 (0.0) n (%) | TEAE by severity: Pain in extremity, severity Mild [2]: 0 (0.0) n (%) | TEAE by severity: Pancreatitis, severity Moderate [2]: 0 (0.0) n (%) | TEAE by severity: Pyrexia, severity Mild [2]: 0 (0.0) n (%) | TEAE by severity: Renal and urinary disorders, severity Mild [2]: 1 (12.5) n (%) | TEAE by severity: Renal impairment, severity Mild [2]: 1 (12.5) n (%) | TEAE by severity: Vascular disorders, severity Mild [2]: 0 (0.0) n (%) | TEAE: Back pain [2]: 1 (12.5) n (%) | TEAE: Diarrhea [2]: 0 (0.0) n (%) | TEAE: Gastrointestinal disorders [2]: 0 (0.0) n (%) | TEAE: General disorders and administration site conditions [2]: 0 (0.0) n (%) | TEAE: Haemarthrosis [2]: 0 (0.0) n (%) | TEAE: Headache [2]: 0 (0.0) n (%) | TEAE: Hypertension [2]: 0 (0.0) n (%) | TEAE: Musculoskeletal and connective tissue disorders [2]: 1 (12.5) n (%) | TEAE: Nervous system disorders [2]: 0 (0.0) n (%) | TEAE: Pain in extremity [2]: 0 (0.0) n (%) | TEAE: Pancreatitis [2]: 0 (0.0) n (%) | TEAE: Pyrexia [2]: 0 (0.0) n (%) | TEAE: Renal and urinary disorders [2]: 1 (12.5) n (%) | TEAE: Renal impairment [2]: 1 (12.5) n (%) | TEAE: Total Subjects with at Least One TEAE [2]: 1 (12.5) n (%) | TEAE: Vascular disorders [2]: 0 (0.0) n (%) | TEAE by severity: Back pain, severity Mild (Total (N = 32)): 1 (3.1) n (%) | TEAE by severity: Back pain, severity Moderate (Total (N = 32)): 1 (3.1) n (%) | TEAE by severity: Diarrhea, severity Mild (Total (N = 32)): 2 (6.3) n (%) | TEAE by severity: Diarrhea, severity Moderate (Total (N = 32)): 1 (3.1) n (%) | TEAE by severity: Gastrointestinal disorders, severity Mild (Total (N = 32)): 2 (6.3) n (%) | TEAE by severity: Gastrointestinal disorders, severity Moderate (Total (N = 32)): 2 (6.3) n (%) | TEAE by severity: General disorders and administration site conditions, severity Mild (Total (N = 32)): 1 (3.1) n (%) | TEAE by severity: Haemarthrosis, severity Mild (Total (N = 32)): 1 (3.1) n (%) | TEAE by severity: Headache, severity Mild (Total (N = 32)): 1 (3.1) n (%) | TEAE by severity: Headache, severity Moderate (Total (N = 32)): 1 (3.1) n (%) | TEAE by severity: Hypertension, severity Mild (Total (N = 32)): 2 (6.3) n (%) | TEAE by severity: Musculoskeletal and connective tissue disorders, severity Mild (Total (N = 32)): 3 (9.4) n (%) | TEAE by severity: Musculoskeletal and connective tissue disorders, severity Moderate (Total (N = 32)): 1 (3.1) n (%) | TEAE by severity: Nervous system disorders, severity Mild (Total (N = 32)): 1 (3.1) n (%) | TEAE by severity: Nervous system disorders, severity Moderate (Total (N = 32)): 1 (3.1) n (%) | TEAE by severity: Pain in extremity, severity Mild (Total (N = 32)): 1 (3.1) n (%) | TEAE by severity: Pancreatitis, severity Moderate (Total (N = 32)): 1 (3.1) n (%) | TEAE by severity: Pyrexia, severity Mild (Total (N = 32)): 1 (3.1) n (%) | TEAE by severity: Renal and urinary disorders, severity Mild (Total (N = 32)): 1 (3.1) n (%) | TEAE by severity: Renal impairment, severity Mild (Total (N = 32)): 1 (3.1) n (%) | TEAE by severity: Vascular disorders, severity Mild (Total (N = 32)): 2 (6.3) n (%) | TEAE: Back pain (Total (N = 32)): 2 (6.3) n (%) | TEAE: Diarrhea (Total (N = 32)): 3 (9.4) n (%) | TEAE: Gastrointestinal disorders (Total (N = 32)): 4 (12.5) n (%) | TEAE: General disorders and administration site conditions (Total (N = 32)): 1 (3.1) n (%) | TEAE: Haemarthrosis (Total (N = 32)): 1 (3.1) n (%) | TEAE: Headache (Total (N = 32)): 2 (6.3) n (%) | TEAE: Hypertension (Total (N = 32)): 2 (6.3) n (%) | TEAE: Musculoskeletal and connective tissue disorders (Total (N = 32)): 4 (12.5) n (%) | TEAE: Nervous system disorders (Total (N = 32)): 2 (6.3) n (%) | TEAE: Pain in extremity (Total (N = 32)): 1 (3.1) n (%) | TEAE: Pancreatitis (Total (N = 32)): 1 (3.1) n (%) | TEAE: Pyrexia (Total (N = 32)): 1 (3.1) n (%) | TEAE: Renal and urinary disorders (Total (N = 32)): 1 (3.1) n (%) | TEAE: Renal impairment (Total (N = 32)): 1 (3.1) n (%) | TEAE: Total Subjects with at Least One TEAE (Total (N = 32)): 9 (28.1) n (%) | TEAE: Vascular disorders (Total (N = 32)): 2 (6.3) n (%) | number of TEAEs considered related to the study drug (diarrhea, mild intensity, 1 subject in the moderate group): 1 TEAE | subjects reporting TEAE diarrhea (normal hepatic function group): 1 subjects | overall safety and tolerability (single oral dose of 20 mg, normal hepatic function, mild, moderate or severe hepatic impairment): safe and well tolerated | deaths, SAEs, other significant AEs (whole study, monohydrate): No deaths, SAEs, or other significant AEs occurred
